Calls of active or inactive are those of the source. The calls are words filed in the database; no cut-off is given here.
Tests used:
[1] = target: T1, NAD-dependent protein deacylase sirtuin-5, mitochondrial (Homo sapiens, UniProt Q9NXA8); experiment: Inhibition of human recombinant SIRT5 (34 to 269 residues) using Ac-Leu-Gly-Ser-Lys (Su)-AMC as fluorogenic substrate incubated for 2 hrs in presence of NAD+ by fluorescence based analysis
Target sequence in this assay (Q9NXA8 whole entry, the tested form may be a part): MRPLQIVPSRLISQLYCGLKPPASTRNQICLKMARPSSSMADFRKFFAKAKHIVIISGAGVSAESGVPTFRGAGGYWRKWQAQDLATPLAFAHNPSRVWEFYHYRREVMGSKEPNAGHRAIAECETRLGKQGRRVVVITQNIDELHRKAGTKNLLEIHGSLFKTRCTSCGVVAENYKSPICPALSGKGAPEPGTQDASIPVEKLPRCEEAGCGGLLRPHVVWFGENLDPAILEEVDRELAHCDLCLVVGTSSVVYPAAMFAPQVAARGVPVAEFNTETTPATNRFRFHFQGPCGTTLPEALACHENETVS

[2] = target: T1, NAD-dependent protein deacylase sirtuin-5, mitochondrial; experiment: Binding affinity to human recombinant SIRT5 (34 to 269 residues) assessed as thermal stabilization by measuring melting temperature at 100 uM and measured after 10 mins by SYPRO orange dye based thermal shift assay
Target sequence in this assay (Q9NXA8 37-310 limits assumed): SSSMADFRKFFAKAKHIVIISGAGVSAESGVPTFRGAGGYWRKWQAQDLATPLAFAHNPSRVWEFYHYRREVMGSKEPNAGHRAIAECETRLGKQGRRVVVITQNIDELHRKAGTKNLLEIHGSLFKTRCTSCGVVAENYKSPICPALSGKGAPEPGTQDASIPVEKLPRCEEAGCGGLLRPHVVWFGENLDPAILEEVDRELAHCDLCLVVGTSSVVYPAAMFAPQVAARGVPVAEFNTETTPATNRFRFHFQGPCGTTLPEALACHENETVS

[3] = target: T1, NAD-dependent protein deacylase sirtuin-5, mitochondrial; experiment: Binding affinity to human recombinant SIRT5 (34 to 269 residues) assessed as thermal stabilization by measuring melting temperature at 50 uM and measured after 10 mins by SYPRO orange dye based thermal shift assay
Target sequence in this assay (Q9NXA8 37-310 limits assumed): as above

[4] = target: T1, NAD-dependent protein deacylase sirtuin-5, mitochondrial; experiment: Competitive inhibition of human recombinant SIRT5 (34 to 269 residues) incubated for 2 hrs in presence of 11 uM of fluorogenic substrate Ac-Leu-Gly-Ser-Lys (Su)-AMC by fluorescence based analysis
Target sequence in this assay (Q9NXA8 whole entry, the tested form may be a part): as the sequence (Q9NXA8 whole entry, the tested form may be a part) above

[5] = target: T1, NAD-dependent protein deacylase sirtuin-5, mitochondrial; experiment: Competitive inhibition of human recombinant SIRT5 (34 to 269 residues) incubated for 2 hrs in presence of 100 uM of fluorogenic substrate Ac-Leu-Gly-Ser-Lys (Su)-AMC by fluorescence based analysis
Target sequence in this assay (Q9NXA8 whole entry, the tested form may be a part): as above

[6] = target: T1, NAD-dependent protein deacylase sirtuin-5, mitochondrial; experiment: Inhibition of human recombinant SIRT5 (34 to 269 residues) using Ac-Leu-Gly-Ser-Lys (Su)-AMC as fluorogenic substrate incubated for 2 hrs in presence of NAD+ at 200 uM by fluorescence based analysis
Target sequence in this assay (Q9NXA8 whole entry, the tested form may be a part): as above

[7] = target: T1, NAD-dependent protein deacylase sirtuin-5, mitochondrial; experiment: Inhibition of human recombinant SIRT5 (34 to 269 residues) using Ac-Leu-Gly-Ser-Lys (Su)-AMC as fluorogenic substrate incubated for 2 hrs in presence of NAD+ at 400 uM by fluorescence based analysis
Target sequence in this assay (Q9NXA8 whole entry, the tested form may be a part): as above

[8] = target: T1, NAD-dependent protein deacylase sirtuin-5, mitochondrial; experiment: Inhibition of human recombinant SIRT5 (34 to 269 residues) using Ac-Leu-Gly-Ser-Lys (Su)-AMC as fluorogenic substrate incubated for 2 hrs in presence of NAD+ at 50 uM by fluorescence based analysis
Target sequence in this assay (Q9NXA8 whole entry, the tested form may be a part): as above

[9] = target: T1, NAD-dependent protein deacylase sirtuin-5, mitochondrial; experiment: Competitive inhibition of human recombinant SIRT5 (34 to 269 residues) using Ac-Leu-GlySer-Lys (Su)-AMC as substrate at 0 to 50 uM by Lineweaver-Burk plot analysis; conditions: dose 0-50 µM
Target sequence in this assay (Q9NXA8 37-310 limits assumed): as the sequence (Q9NXA8 37-310 limits assumed) above

[10] = target: T1, NAD-dependent protein deacylase sirtuin-5, mitochondrial; experiment: Binding affinity to human recombinant SIRT5 (34 to 269 residues) assessed as thermal stabilization by measuring change in melting temperature at 100 uM and measured after 10 mins by SYPRO orange dye based thermal shift assay
Target sequence in this assay (Q9NXA8 37-310 limits assumed): as above

[11] = target: T2, NAD-dependent protein deacetylase sirtuin-2 (Homo sapiens, UniProt Q8IXJ6); experiment: Inhibition of human recombinant SIRT2 using Ac-Glu-Thr-Asp-Lys (Dec)-AM as substrate in presence of NAD+
T2 sequence (Q8IXJ6 whole entry): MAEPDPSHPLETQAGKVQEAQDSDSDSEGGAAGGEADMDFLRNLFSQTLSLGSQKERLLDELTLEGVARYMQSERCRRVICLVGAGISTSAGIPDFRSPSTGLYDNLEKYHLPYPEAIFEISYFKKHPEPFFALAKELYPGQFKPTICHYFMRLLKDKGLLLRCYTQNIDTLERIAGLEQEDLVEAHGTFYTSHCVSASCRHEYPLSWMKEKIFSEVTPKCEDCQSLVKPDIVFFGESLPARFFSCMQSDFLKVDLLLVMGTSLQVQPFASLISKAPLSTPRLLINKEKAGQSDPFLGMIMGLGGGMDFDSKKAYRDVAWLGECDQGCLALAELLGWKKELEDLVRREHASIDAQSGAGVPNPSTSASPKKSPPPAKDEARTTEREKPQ

[12] = target: T1, NAD-dependent protein deacylase sirtuin-5, mitochondrial; experiment: Competitive inhibition of human recombinant SIRT5 (34 to 269 residues) incubated for 2 hrs in presence of 300 uM of fluorogenic substrate Ac-Leu-Gly-Ser-Lys (Su)-AMC by fluorescence based analysis
[13] = target: T1, NAD-dependent protein deacylase sirtuin-5, mitochondrial; experiment: Inhibition of human recombinant SIRT5 (34 to 269 residues) using Ac-Leu-Gly-Ser-Lys (Su)-AMC as fluorogenic substrate incubated for 2 hrs in presence of NAD+ at 800 uM by fluorescence based analysis
[14] = target: T1, NAD-dependent protein deacylase sirtuin-5, mitochondrial; experiment: Competitive inhibition of human recombinant SIRT5 (34 to 269 residues) incubated for 2 hrs in presence of 33 uM of fluorogenic substrate Ac-Leu-Gly-Ser-Lys (Su)-AMC by fluorescence based analysis
[15] = target: T1, NAD-dependent protein deacylase sirtuin-5, mitochondrial; experiment: Inhibition of human recombinant SIRT5 (34 to 269 residues) using Ac-Leu-Gly-Ser-Lys (Su)-AMC as fluorogenic substrate incubated for 2 hrs in presence of NAD+ at 100 uM by fluorescence based analysis
[16] = target: T1, NAD-dependent protein deacylase sirtuin-5, mitochondrial; experiment: Binding affinity to human recombinant SIRT5 (34 to 269 residues) assessed as thermal stabilization by measuring change in melting temperature at 50 uM and measured after 10 mins by SYPRO orange dye based thermal shift assay
Target sequence in this assay (Q9NXA8 37-310 limits assumed): as the sequence (Q9NXA8 37-310 limits assumed) above

[17] = target: T3, NAD-dependent protein deacetylase sirtuin-1 (Homo sapiens, UniProt Q96EB6); experiment: Inhibition of recombinant SIRT1 (unknown origin) using Ac-Arg-Leu-Ile-Lys-(Ac) AMC as substrate in presence of NAD+
T3 sequence (Q96EB6 whole entry): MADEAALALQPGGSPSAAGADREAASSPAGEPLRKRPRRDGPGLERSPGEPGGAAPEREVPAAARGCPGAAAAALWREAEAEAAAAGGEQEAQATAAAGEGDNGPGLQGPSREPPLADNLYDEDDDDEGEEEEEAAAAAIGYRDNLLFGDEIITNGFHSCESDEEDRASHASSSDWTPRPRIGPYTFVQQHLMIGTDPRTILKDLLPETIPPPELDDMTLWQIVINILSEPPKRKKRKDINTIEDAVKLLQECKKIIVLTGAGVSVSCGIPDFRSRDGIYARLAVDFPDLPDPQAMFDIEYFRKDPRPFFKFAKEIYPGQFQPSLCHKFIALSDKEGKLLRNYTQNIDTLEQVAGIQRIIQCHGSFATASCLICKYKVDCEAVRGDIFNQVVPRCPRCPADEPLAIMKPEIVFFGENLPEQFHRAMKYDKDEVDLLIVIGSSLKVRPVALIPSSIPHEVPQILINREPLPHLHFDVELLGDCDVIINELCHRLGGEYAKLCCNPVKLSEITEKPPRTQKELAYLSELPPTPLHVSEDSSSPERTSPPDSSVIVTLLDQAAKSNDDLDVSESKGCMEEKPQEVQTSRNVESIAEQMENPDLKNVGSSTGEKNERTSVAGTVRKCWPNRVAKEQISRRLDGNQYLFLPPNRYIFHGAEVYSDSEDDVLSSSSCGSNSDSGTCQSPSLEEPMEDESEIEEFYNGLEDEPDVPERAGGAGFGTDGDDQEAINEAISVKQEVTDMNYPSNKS

CC(CCc1ccccc1)Nc1nc(NCCCNC(=S)NCCC(=O)O)nc(Nc2ccccc2Cl)n1 (stereo unspecified)
IC50 [1]: 27 µM

O=C(O)CCNC(=S)NCCCNc1nc(Nc2cc(F)cc(F)c2)nc(Nc2ccccc2Cl)n1
IC50 [1]: 21.4 µM

Cc1c(Br)cccc1Nc1nc(NCCCNC(=S)NCCC(=O)O)nc(Nc2ccccc2Cl)n1
IC50 [1]: 49.9 µM

O=C(O)CCNC(=S)NCCCNc1nc(NCCc2ccccc2)nc(Nc2ccccc2Cl)n1
IC50 [1]: 6.97 µM

O=C(O)CCNC(=S)NCCCNc1nc(Nc2ccccc2Cl)nc(NC2CC2)n1
IC50 [1]: 18.2 µM

Cc1cccc(Nc2nc(NCCCNC(=S)NCCC(=O)O)nc(Nc3ccccc3Cl)n2)c1Br
IC50 [1]: 6.16 µM

O=C(O)CCNC(=S)NCCCNc1nc(Nc2ccccc2Cl)nc(NC2CCCC2)n1
IC50 [1]: 19.4 µM

CC[C@H](Nc1nc(NCCCNC(=S)NCCC(=O)O)nc(Nc2ccccc2Cl)n1)c1ccccc1
IC50 [1]: 9.43 µM

CC(C)(C)OC(=O)[C@H](Nc1nc(NCCCNC(=S)NCCC(=O)O)nc(Nc2ccccc2Cl)n1)c1ccccc1
IC50 [1]: 21.5 µM

O=C(O)CCNC(=S)NCCCNc1nc(Nc2ccccc2Cl)nc(N2CCCC2c2ccccc2)n1 (stereo unspecified)
IC50 [1]: 13 µM

COc1cc(Nc2nc(NCCCNC(=S)NCCC(=O)O)nc(Nc3ccccc3Cl)n2)cc(OC)c1
Tm [2]: 69.7 °C
Tm [3]: 69.4 °C
IC50 [1]: 4.07 µM
IC50 [4]: 7.93 µM
IC50 [5]: 29.2 µM
IC50 [6]: 3.27 µM
IC50 [7]: 3.48 µM
IC50 [8]: 4.77 µM
inhibition [9]: Active
ΔTm [10]: 3.29 °C
IC50 [11]: 111 µM
IC50 [12]: 42.5 µM
IC50 [13]: 4.66 µM
IC50 [14]: 14.3 µM
IC50 [15]: 4.83 µM
ΔTm [16]: 2.91 °C
IC50 [17]: 95.9 µM

O=C(O)CCNC(=S)NCCCNc1nc(Nc2ccccc2Cl)nc(NC2CCC2)n1
IC50 [1]: 25.1 µM

O=C(O)CCNC(=S)NCCCNc1nc(Nc2ccccc2)nc(Nc2ccccc2Cl)n1
IC50 [1]: 5.38 µM
IC50 [4]: 3.21 µM
IC50 [5]: 14.2 µM
IC50 [6]: 4.68 µM
IC50 [7]: 4.05 µM
IC50 [8]: 2.27 µM
IC50 [11]: 136 µM
IC50 [12]: 29.6 µM
IC50 [13]: 6.74 µM
IC50 [14]: 5.88 µM
IC50 [15]: 3.35 µM
IC50 [17]: 21.9 µM

O=C(O)CCNC(=S)NCCCNc1nc(NCc2ccccc2)nc(Nc2ccccc2Cl)n1
IC50 [1]: 14.5 µM

From ChEMBL document CHEMBL5370576, “Design, synthesis and biological evaluation of 2,4,6- trisubstituted triazine derivatives as new nonpeptide small-molecule SIRT5 inhibitors” (Bioorg Med Chem, 2023)
